# Test results from ChEMBL document CHEMBL1125643, “N-(5-fluorobenzothiazol-2-yl)-2-guanidinothiazole-4-carboxamide. A novel, systemically active antitumor agent effective against 3LL Lewis lung carcinoma” (J Med Chem, 1991).
# How the values were obtained:
# [1] = Drug related lethality is percent animals in treated groups dying prior to first tumor related death in untreated groups measured in BDF1 mice after ip administration at 8 mg/kg dose days 3,7,11 after tumor challenge; format: toxicity, organism-based; design: dose 8 mg/kg, route intraperitoneal; conditions: BDF1, mus sp., in vivo, read-out: Lethality
# Mus sp. [2] = assay: In vivo activity measured against 3LL metastasis in BDF1 mice after ip administration at 16 mg/kg dose, dosing on days 3,7,11 after tumor challenge; format: functional; conditions: route intraperitoneal
# Mus sp. [3] = assay: In vivo activity measured against 3LL metastasis in BDF1 mice after ip administration at 8 mg/kg dose, dosing on days 3,7,11 after tumor challenge; format: functional; conditions: route intraperitoneal
# Mus sp. [4] = assay: In vivo activity measured against 3LL metastasis in BDF1 mice after ip administration at 32 mg/kg dose, dosing on days 3,7,11 after tumor challenge; format: functional; conditions: route intraperitoneal
# [5] = Drug related lethality is percent animals in treated groups dying prior to first tumor related death in untreated groups measured in BDF1 mice after ip administration at 16 mg/kg dose days 3,7,11 after tumor challenge; format: toxicity, organism-based; design: dose 16 mg/kg, route intraperitoneal; conditions: BDF1, mus sp., in vivo, read-out: Lethality
# [6] = Drug related lethality is percent animals in treated groups dying prior to first tumor related death in untreated groups measured in BDF1 mice after ip administration at 32 mg/kg dose days 3,7,11 after tumor challenge; format: toxicity, organism-based; design: dose 32 mg/kg, route intraperitoneal; conditions: BDF1, mus sp., in vivo, read-out: Lethality
# [7] = Drug related lethality is percent animals in treated groups dying prior to first tumor related death in untreated groups measured in BDF1 mice after ip administration at 50 mg/kg dose 2-4 days after tumor challenge; format: toxicity, organism-based; design: dose 50 mg/kg, route intraperitoneal; conditions: BDF1, mus sp., in vivo, read-out: Lethality
# Mus sp. [8] = assay: In vivo activity measured against 3LL metastasis in BDF1 mice after ip administration at 100 mg/kg dose, dosing on days 2-4 after tumor challenge; format: functional; conditions: route intraperitoneal
# Mus sp. [9] = assay: In vivo activity measured against 3LL metastasis in BDF1 mice after ip administration at 100 mg/kg dose, dosing on days 3-6 after tumor challenge; format: functional; conditions: route intraperitoneal
# Mus sp. [10] = assay: In vivo activity measured against 3LL metastasis in BDF1 mice after ip administration at 200 mg/kg dose, dosing on days 2-4 after tumor challenge; format: functional; conditions: route intraperitoneal
# Mus sp. [11] = assay: In vivo activity measured against 3LL metastasis in BDF1 mice after ip administration at 25 mg/kg dose, dosing on days 2-4 after tumor challenge; format: functional; conditions: route intraperitoneal
# Mus sp. [12] = assay: In vivo activity measured against 3LL metastasis in BDF1 mice after ip administration at 50 mg/kg dose, dosing on days 2-4 after tumor challenge; format: functional; conditions: route intraperitoneal
# Mus sp. [13] = assay: In vivo activity measured against 3LL metastasis in BDF1 mice after ip administration at 50 mg/kg dose, dosing on days 3-6 after tumor challenge; format: functional; conditions: route intraperitoneal
# [14] = Drug related lethality is percent animals in treated groups dying prior to first tumor related death in untreated groups measured in BDF1 mice after ip administration at 25 mg/kg dose 2-4 days after tumor challenge; format: toxicity, organism-based; design: dose 25 mg/kg, route intraperitoneal; conditions: BDF1, mus sp., in vivo, read-out: Lethality
# [15] = Drug related lethality is percent animals in treated groups dying prior to first tumor related death in untreated groups measured in BDF1 mice after ip administration at 100 mg/kg dose 2-4 days after tumor challenge; format: toxicity, organism-based; design: dose 100 mg/kg, route intraperitoneal; conditions: BDF1, mus sp., in vivo, read-out: Lethality
# [16] = Drug related lethality is percent animals in treated groups dying prior to first tumor related death in untreated groups measured in BDF1 mice after ip administration at 100 mg/kg dose 3-6 days after tumor challenge; format: toxicity, organism-based; design: dose 100 mg/kg, route intraperitoneal; conditions: BDF1, mus sp., in vivo, read-out: Lethality
# [17] = Drug related lethality is percent animals in treated groups dying prior to first tumor related death in untreated groups measured in BDF1 mice after ip administration at 200 mg/kg dose 2-4 days after tumor challenge; format: toxicity, organism-based; design: dose 200 mg/kg, route intraperitoneal; conditions: BDF1, mus sp., in vivo, read-out: Lethality
# Mus sp. [18] = assay: Drug related lethality is percent animals in treated groups dying prior to first tumor related death in untreated groups measured in BDF1 mice after ip administration at 5 mg/kg dose 3 days after tumor challenge; format: toxicity, organism-based; design: dose 5 mg/kg, route intraperitoneal; conditions: in vivo, 72 h
# Mus sp. [19] = assay: Drug related lethality is percent animals in treated groups dying prior to first tumor related death in untreated groups measured in BDF1 mice after ip administration at 10 mg/kg dose 3 days after tumor challenge; format: toxicity, organism-based; design: dose 10 mg/kg, route intraperitoneal; conditions: in vivo, 72 h
# Mus sp. [20] = assay: In vivo activity measured against 3LL metastasis in BDF1 mice after ip administration at 10 mg/kg dose, dosing on days 3 after tumor challenge; format: functional, organism-based; design: dose 10 mg/kg
# Mus sp. [21] = assay: In vivo activity measured against 3LL metastasis in BDF1 mice after ip administration at 5 mg/kg dose, dosing on days 3 after tumor challenge; format: functional, organism-based; design: dose 5 mg/kg
compound,measurement,setting,value
COc1cc([C@@H]2c3cc4c(cc3[C@@H](O[C@@H]3O[C@@H]5CO[C@@H](C)O[C@H]5[C@H](O)[C@H]3O)[C@H]3COC(=O)[C@H]23)OCO4)cc(OC)c1O [ETOPOSIDE],mortality,[1],0%
same,T/C,Mus sp. [2],128%
same,T/C,Mus sp. [3],118%
same,T/C,Mus sp. [4],130%
same,mortality,[5],0%
same,mortality,[6],7%
O=c1[nH]cc(F)c(=O)[nH]1 [FLUOROURACIL],mortality,[7],0%
same,T/C,Mus sp. [8],127%
same,T/C,Mus sp. [9],125%
same,T/C,Mus sp. [10],141%
same,T/C,Mus sp. [11],114%
same,T/C,Mus sp. [12],118%
same,T/C,Mus sp. [13],109%
same,mortality,[14],0%
same,mortality,[15],0%
same,mortality,[16],14%
same,mortality,[17],28%
CISPLATIN [listing 1 of 2 here],Lethality,Mus sp. [18],0%
same,Lethality,Mus sp. [19],0%
CISPLATIN [listing 2 of 2 here],T/C,Mus sp. [20],116%
same,T/C,Mus sp. [21],112%
